Results reported in patent US8216822B2, “Bacterial host cell for the direct expression of peptides” (Unigene Laboratories, Inc., priority 2004, dated 2012).

B1: α2-macroglobulin: protease inhibitor (protein, UniProt P01023 24-1474, looked up)
Alpha-2-macroglobulin: SVSGKPQYMVLVPSLLHTETTEKGCVLLSYLNETVTVSASLESVRGNRSLFTDLEAENDVLHCVAFAVPKSSSNEEVMFLTVQVKGPTQEFKKRTTVMVKNEDSLVFVQTDKSIYKPGQTVKFRVVSMDENFHPLNELIPLVYIQDPKGNRIAQWQSFQLEGGLKQFSFPLSSEPFQGSYKVVVQKKSGGRTEHPFTVEEFVLPKFEVQVTVPKIITILEEEMNVSVCGLYTYGKPVPGHVTVSICRKYSDASDCHGEDSQAFCEKFSGQLNSHGCFYQQVKTKVFQLKRKEYEMKLHTEAQIQEEGTVVELTGRQSSEITRTITKLSFVKVDSHFRQGIPFFGQVRLVDGKGVPIPNKVIFIRGNEANYYSNATTDEHGLVQFSINTTNVMGTSLTVRVNYKDRSPCYGYQWVSEEHEEAHHTAYLVFSPSKSFVHLEPMSHELPCGHTQTVQAHYILNGGTLLGLKKLSFYYLIMAKGGIVRTGTHGLLVKQEDMKGHFSISIPVKSDIAPVARLLIYAVLPTGDVIGDSAKYDVENCLANKVDLSFSPSQSLPASHAHLRVTAAPQSVCALRAVDQSVLLMKPDAELSASSVYNLLPEKDLTGFPGPLNDQDNEDCINRHNVYINGITYTPVSSTNEKDMYSFLEDMGLKAFTNSKIRKPKMCPQLQQYEMHGPEGLRVGFYESDVMGRGHARLVHVEEPHTETVRKYFPETWIWDLVVVNSAGVAEVGVTVPDTITEWKAGAFCLSEDAGLGISSTASLRAFQPFFVELTMPYSVIRGEAFTLKATVLNYLPKCIRVSVQLEASPAFLAVPVEKEQAPHCICANGRQTVSWAVTPKSLGNVNFTVSAEALESQELCGTEVPSVPEHGRKDTVIKPLLVEPEGLEKETTFNSLLCPSGGEVSEELSLKLPPNVVEESARASVSVLGDILGSAMQNTQNLLQMPYGCGEQNMVLFAPNIYVLDYLNETQQLTPEIKSKAIGYLNTGYQRQLNYKHYDGSYSTFGERYGRNQGNTWLTAFVLKTFAQARAYIFIDEAHITQALIWLSQRQKDNGCFRSSGSLLNNAIKGGVEDEVTLSAYITIALLEIPLTVTHPVVRNALFCLESAWKTAQEGDHGSHVYTKALLAYAFALAGNQDKRKEVLKSLNEEAVKKDNSVHWERPQKPKAPVGHFYEPQAPSAEVEMTSYVLLAYLTAQPAPTSEDLTSATNIVKWITKQQNAQGGFSSTQDTVVALHALSKYGAATFTRTGKAAQVTIQSSGTFSSKFQVDNNNRLLLQQVSLPELPGEYSMKVTGEGCVYLQTSLKYNILPEKEEFPFALGVQTLPQTCDEPKAHTSFQISLSVSYTGSRSASNMAIVDVKMVSGFIPLKPTVKMLERSNHVSRTEVSSNHVLIYLDKVSNQTLSLFFTVLQDVPVRDLKPAIVKVYDYYETDEFAIAEYNAPCSKDLGNA

Columns and labels:
[1] = target: T1, E. coli Protease III (zinc metalloprotease) in fermentation medium (Escherichia coli, UniProt P05458); test: Divalent cation specificity of sCTgly degradation in fermentation medium (EDTA, MgCl2, ZnCl2); format: biochemical; settings: 15 mM added to EDTA (50 mM) pre-treated medium, 30° C., 4 hrs
T1 construct: E. coli Protease III is a periplasmic/extracellular zinc metalloprotease; endogenous in cells; host or cells: E. coli BLR (UGL703 / UGL165), cell-free conditioned fermentation medium

[2] = system: proteolytic degradation of sCTgly in conditioned fermentation medium; test: Protease inhibitors tested for ability to reduce proteolytic degradation of sCTgly in conditioned medium; format: biochemical, E. coli; settings: 30° C.
Experimental: Conditioned medium samples from both UGL165 (E. coli BLR transformed with pSCT 029) and UGL703 (E. coli BLR transformed with pSCT 038) Direct Expression fermentations were tested for loss of sCTgly following removal of cells and incubation of the medium spiked with sCTgly at 30° C. The concentration of sCTgly in conditioned fermentation medium was measured by CEX HPLC.

T1 sequence (P05458 24-962): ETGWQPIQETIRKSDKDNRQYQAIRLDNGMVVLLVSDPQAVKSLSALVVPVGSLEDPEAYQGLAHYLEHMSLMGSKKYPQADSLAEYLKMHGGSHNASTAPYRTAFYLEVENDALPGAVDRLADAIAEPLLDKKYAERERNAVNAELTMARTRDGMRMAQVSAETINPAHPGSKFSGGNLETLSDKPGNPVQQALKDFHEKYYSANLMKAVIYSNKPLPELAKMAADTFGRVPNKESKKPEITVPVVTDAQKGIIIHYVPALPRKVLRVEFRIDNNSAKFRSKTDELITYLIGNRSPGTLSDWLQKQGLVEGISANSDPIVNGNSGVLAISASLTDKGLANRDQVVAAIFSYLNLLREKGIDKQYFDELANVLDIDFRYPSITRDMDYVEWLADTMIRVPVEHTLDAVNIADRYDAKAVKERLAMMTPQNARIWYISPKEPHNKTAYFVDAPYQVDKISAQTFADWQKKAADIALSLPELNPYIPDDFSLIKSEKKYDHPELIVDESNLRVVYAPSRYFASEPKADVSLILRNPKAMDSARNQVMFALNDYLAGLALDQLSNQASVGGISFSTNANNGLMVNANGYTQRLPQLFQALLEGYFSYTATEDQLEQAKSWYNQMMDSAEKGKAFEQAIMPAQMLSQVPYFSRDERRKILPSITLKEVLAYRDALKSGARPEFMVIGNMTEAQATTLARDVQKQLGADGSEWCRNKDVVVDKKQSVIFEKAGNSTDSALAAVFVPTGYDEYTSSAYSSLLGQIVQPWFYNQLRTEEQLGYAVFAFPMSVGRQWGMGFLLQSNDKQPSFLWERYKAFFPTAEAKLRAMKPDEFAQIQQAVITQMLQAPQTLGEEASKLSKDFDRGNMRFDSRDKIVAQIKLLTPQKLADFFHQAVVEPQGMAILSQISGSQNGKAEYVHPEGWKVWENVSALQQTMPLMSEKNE

| Molecule | reactivation of proteolytic activity by divalent cation [1] | ability to reduce or eliminate proteolytic degradation of sCTgly [2] |
| --- | --- | --- |
| [Cl-].[Cl-].[Zn+2] [ZnCl2] | zinc was effective |  |
| CC(C)C[C@H](NC(=O)[C@@H](O)[C@H](N)Cc1ccccc1)C(=O)O [Bestatin] |  | Only EDTA was able to reduce the proteolytic degradation of sCTgly |
| [Cl-].[Cl-].[Mg+2] [MgCl2] | magnesium was not |  |
| B1 |  | Only EDTA was able to reduce the proteolytic degradation of sCTgly |
